Laboratory results: PMC8317065, “UPLC-MS/MS Method for Analysis of Endocannabinoid and Related Lipid Metabolism in Mouse Mucosal Tissue” (Frontiers in Physiology, 2021)
pIC50: −log10 of the molar value.

Legend:
[1] = system: DGL; experiment: DGL (MAG biosynthetic enzyme) activity assay, UPLC-MS/MS, jejunum epithelium protein isolates; assay type: biochemical, mouse; details: jejunum epithelium protein 50 μg
Protocol: (§1) Homogenized samples were centrifuged at 800 × g for 15 m at 4°C. The supernatant was collected in a 2.0 mL centrifuge tube and sonicated twice for 10 s. Samples underwent two sequential freeze thaw cycles using liquid N2. Samples were again centrifuged at 800 × g, 15 min, 4°C and the supernatant was collected. Total protein was then quantified via BCA assay and normalized between all samples. Protein isolations for each assay and each tissue were performed separately.
Substrate solutions were prepared by drying stock 19:2 DAG (20 nmol/reaction) under N2 steam (99.998% pure) and reconstituted in a solution of 50 mM Tris–HCl with 0.2% Triton x-100 (pH = 7.0). This solution was bath sonicated for 60 min at room temperature while protein samples were prepared. […] The products of the reaction were extracted via lipid extraction methods (see section “Lipid Extraction for Enzyme Assays”) and quantified via UPLC-MS/MS (see section “Quantitation of MAG Biosynthetic Enzyme Activity Assay Products”).
Lipids were extracted using liquid-liquid extraction with chloroform (2.0 mL) followed by 0.8 mL 0.2-micron ultra-purified water. […] Products were detected and quantified via UPLC-MS/MS techniques (see section “UPLC-MS/MS Detection of Analytes”). […]

[2] = system: DGL; experiment: DGL activity assay, UPLC-MS/MS, lung protein isolates; assay type: biochemical, mouse; details: for DAG metabolism (normalized response): lung protein 50 μg
Protocol: as §1
Substrate solutions were prepared by drying stock 19:2 DAG (20 nmol/reaction) under N2 steam (99.998% pure) and reconstituted in a solution of 50 mM Tris–HCl with 0.2% Triton x-100 (pH = 7.0). This solution was bath sonicated for 60 min at room temperature while protein samples were prepared. […] In addition, the ABHD6 inhibitor, WWL 70 (10 μM), was added to lung protein isolates for the 10-minute room temperature incubation to ensure the product of interest was not metabolized ([Tchantchou and Zhang, 2013]). Dose-inhibition experiments included addition of the DGL inhibitor, THL [albeit not selective for DGL, see [Hoover et al. (2008)]; [DiPatrizio et al. (2015)]]. […] The products of the reaction were extracted via lipid extraction methods (see section “Lipid Extraction for Enzyme Assays”) and quantified via UPLC-MS/MS (see section “Quantitation of MAG Biosynthetic Enzyme Activity Assay Products”).
Lipids were extracted using liquid-liquid extraction with chloroform (2.0 mL) followed by 0.8 mL 0.2-micron ultra-purified water. […] Products were detected and quantified via UPLC-MS/MS techniques (see section “UPLC-MS/MS Detection of Analytes”).
Analytes were eluted at a flow rate of 0.4 mL/min and gradient: 80% methanol 0.0–0.5 min, 80–100% methanol 0.5–2.5 min, 100% methanol 2.5–3.0 min, 100–80% methanol 3.0–3.1 min, and 80% methanol 3.1–4.5 min. […] Lipids were quantified using a stable isotope serial dilution method detecting H^+ or Na^+ adducts of the molecular ions [M + H/Na]^+ in multiple reactions monitoring (MRM) mode (variable amounts of product 19:2 MAG versus fixed amount of internal standard [^2H5]-2-AG). […]

[3] = system: human recombinant DGL; design: method as in Bisogno et al., 2006; details: ref Bisogno et al., 2006, read-out: IC50 reported for human recombinant DGL; cited from earlier work
[4] = highest inhibitor concentration of range (1,000 nM)
[5] = lowest inhibitor concentration of range (3 nM)

DGL activity (normalized response) [1, 4]: 20.39 ± 6.65%
DGL activity (normalized response) [1, 5]: 108.85 ± 6.19%
pIC50 ([2]; mouse lung protein isolates 50 μg, THL 3-1,000 nM, read-out: IC50, inhibition of DAG metabolism (DGL activity)): 7.13
SMILES: CCCCCCCCCCC[C@@H](C[C@@H]1OC(=O)[C@H]1CCCCCC)OC(=O)[C@H](CC(C)C)NC=O [THL, tetrahydrolipstatin]
DAG metabolism (normalized response) [2, 4]: 10.19 ± 0.29%
DAG metabolism (normalized response) [2, 5]: 90.26 ± 9.07%
pIC50 [3]: 7.22
